Experimental data taken from patent publication US20060287319A1, “Anti-viral compositions comprising heterocyclic substituted phenyl furans and related compounds” (priority 2005, published 2006).
Read-outs that look alike come from different tables or passages of the source.

How the values were obtained:
92THA009 (clade E, R5) = conditions: read-out: EC50 (μM) (Mean ± SD)
Experimental: (§1) Inhibitory activity of compounds on infection by primary HIV-1 isolates was determined as previously described (37). PBMCs were isolated from the blood of healthy donors at the New York Blood Center by standard density gradient centrifugation using Histopaque-1077 (Sigma). The cells were plated in 75 cm^2 plastic flasks and incubated at 37° C. for 2 hrs. The nonadherent cells were collected and resuspended at 5×10^6 in 10 ml RPMI-1640 medium containing 10% FBS, 5 μg/ml PHA and 100 U/ml IL-2 (Sigma), followed by incubation at 37° C. for 3 days. The PHA-stimulated cells were infected with corresponding primary HIV-1 isolates at 0.01 multiplicity of infection (MOI) in the absence or presence of a compound at graded concentrations. Culture media were changed every 3 days. The supernatants were collected 7 days post-infection and tested for p24 antigen by ELISA as described above. The percent inhibition of p24 production and IC50 values were calculated as described above.

93MW959 (clade C, R5) = conditions: read-out: EC50 (μM) (Mean ± SD)
Experimental: as §1

94UG103 (clade A, X4R5) = conditions: read-out: EC50 (μM) (Mean ± SD)
Experimental: as §1

92UG001 (clade D, X4) = conditions: read-out: EC50 (μM) (Mean ± SD)
Experimental: as §1

RU570 (clade G, R5) = conditions: read-out: EC50 (μM) (Mean ± SD)
Experimental: as §1

93BR020 (clade F, X4R5) = conditions: read-out: EC50 (μM) (Mean ± SD)
Experimental: as §1

92US657 (clade B, R5) = conditions: read-out: EC50 (μM) (Mean ± SD)
Experimental: as §1

BCF02 (clade O, R5) = conditions: read-out: EC50 (μM) (Mean ± SD)
Experimental: as §1

MT-2 cells = tested on: MT-2 cells
Experimental: Detection of in vitro cytotoxicity. The in vitro cytotoxicity of compounds for MT-2 cells was measured by a colorimetric method using XTT tetrazolium dye as previously described (21). Briefly, 100 μl of a compound at a graded concentration was added to equal volume of cells (5×10^5/ml) in a well of 96-well plates. After incubation at 37° C. for 4 days, XTT (1 mg/ml; […]; PolySciences, Inc., Warrington, Pa.) was added. Four hours later, the soluble intracellular formazan was quantitated colorimetrically at 450 nm with a reference at 570 nm.

[1] = read-out: Cytotoxicity CC50 (μM) (M ± SD), MT-2 cells

SMILES | EC50 (92THA009 (clade E, R5)) [µM] | EC50 (93MW959 (clade C, R5)) [µM] | EC50 (94UG103 (clade A, X4R5)) [µM] | EC50 (92UG001 (clade D, X4)) [µM] | EC50 (RU570 (clade G, R5)) [µM] | EC50 (93BR020 (clade F, X4R5)) [µM] | EC50 (92US657 (clade B, R5)) [µM] | EC50 (BCF02 (clade O, R5)) [µM] | CC50 (MT-2 cells; [1]) [µM] | CC50 (MT-2 cells) [µM]
O=C(O)c1cc(-c2ccc(/C=C3\SC(=S)N(CCc4ccccc4)C3=O)o2)ccc1Cl [NB206] | 0.075 ± 0.022 | 0.097 ± 0.002 | 0.004 ± 0.001 | 0.188 ± 0.053 | 0.017 ± 0.004 | 0.084 ± 0.036 | 0.216 ± 0.054 | 0.073 ± 0.012 | 18.8 ± 7.48 | 
O=C(O)c1cccc(-c2ccc(/C=C3\SC(=S)N(c4ccc(Cl)cc4Cl)C3=O)o2)c1 [NB231] | 0.217 ± 0.058 | 0.876 ± 0.002 | 0.125 ± 0.013 | 0.19 ± 0.002 | 0.143 ± 0.061 | 0.139 ± 0.033 | 1.06 ± 0.344 | 0.226 ± 0.003 | 124.1 ± 0.756 | 
CCN1C(=O)/C(=C/c2ccc(-c3cccc(C(=O)O)c3)o2)SC1=S [NB179] | 6.21 ± 0.987 | 1.87 ± 0.155 | 0.088 ± 0.047 | 0.613 ± 0.099 | 0.431 ± 0.122 | 0.143 ± 0.056 | 0.847 ± 0.356 | 0.886 ± 0.242 |  | > 616
